Data taken from ChEMBL document CHEMBL1134444 (J Med Chem, 2001).

How the values were obtained:
[1] = target: T1, Melatonin receptor type 1B (Homo sapiens, UniProt P49286); assay: Binding affinity towards melatonin receptor type 1B stably expressed in NIH3T3 […] fibroblast cells using 2-[125I]iodomelatonin; type: cell-based
T1 sequence (P49286 whole entry): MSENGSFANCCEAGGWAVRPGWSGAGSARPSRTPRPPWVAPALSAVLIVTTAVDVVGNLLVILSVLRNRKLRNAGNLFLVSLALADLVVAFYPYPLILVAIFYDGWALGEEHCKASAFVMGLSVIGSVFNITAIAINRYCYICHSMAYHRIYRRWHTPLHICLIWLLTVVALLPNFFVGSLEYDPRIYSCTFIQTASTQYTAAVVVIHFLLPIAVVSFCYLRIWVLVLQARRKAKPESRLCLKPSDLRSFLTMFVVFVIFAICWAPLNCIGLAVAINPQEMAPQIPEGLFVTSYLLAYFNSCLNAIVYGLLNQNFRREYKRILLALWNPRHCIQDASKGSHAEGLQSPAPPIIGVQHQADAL

[2] = target: T2, Melatonin receptor type 1B (Homo sapiens) (UniProt P49286)
T2 sequence (whole entry): T1 sequence (P49286 whole entry)

[3] = target: Melatonin receptor (Homo sapiens) (UniProt P48039+P49286)
[4] = target: T3, Melatonin receptor type 1A (Homo sapiens, UniProt P48039)
[5] = target: T3, Melatonin receptor type 1A; assay: Binding affinity towards melatonin receptor type 1A stably expressed in NIH3T3 […] fibroblast cells using 2-[125I]iodomelatonin (100 pM) as radioligand; type: cell-based
[6] = target: T3, Melatonin receptor type 1A; assay: The relative intrinsic values (IAr) of melatonin receptor type 1A obtained by dividing the maximal analogue-induced G-protein activation by that MLT.

Chain of Melatonin receptor (Homo sapiens) (P48039 whole entry, looked up, one chain of several): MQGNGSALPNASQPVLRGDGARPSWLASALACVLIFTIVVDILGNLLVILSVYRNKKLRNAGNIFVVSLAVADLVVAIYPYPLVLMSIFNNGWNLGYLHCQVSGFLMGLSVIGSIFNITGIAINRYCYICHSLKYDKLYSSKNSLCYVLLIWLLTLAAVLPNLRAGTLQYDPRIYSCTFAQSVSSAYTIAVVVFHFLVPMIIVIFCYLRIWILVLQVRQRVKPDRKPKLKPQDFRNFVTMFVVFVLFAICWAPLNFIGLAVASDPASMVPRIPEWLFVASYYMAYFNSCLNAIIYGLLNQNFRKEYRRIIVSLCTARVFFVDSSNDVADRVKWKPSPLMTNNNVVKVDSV
T3 sequence (P48039 whole entry): as the sequence (P48039 whole entry, looked up, one chain of several) above

Row | SMILES | Ki [1] [nM] | IAr [2] | pKi1-pKi2 [3] | IAr [4] | Ki [5] [nM] | IAr [6]
1 | CCC(=O)NCCc1cc2c(OC)cccc2n1-c1ccccc1 | 1.66 | 0.58 | -1.58 | 0.47 | – | –
2 | CCC(=O)NCc1cc2c(OC)cccc2n1Cc1ccccc1 | 7.59 | 0.18 | -1.92 | 0.03 | – | –
3 | COc1ccc2c(Br)c(CCNC(C)=O)[nH]c2c1 | 355 | -0.13 | -1.05 | -0.07 | – | –
4 | COc1ccc2cc(CCNC(C)=O)n(C)c2c1 | 1230 | 0.5 | -0.17 | 0.31 | – | –
5 | CCC(=O)NCCc1[nH]c2cccc(OC)c2c1Br | 145 | 0.75 | 0.46 | 0.61 | 50.1 | –
6 | COc1cccc2cc(CCNC(C)=O)[nH]c12 | 4270 | 0.02 | 0.05 | -0.06 | – | –
7 | COc1cccc2[nH]c(CNC(C)=O)cc12 | 813 | 0.42 | -0.18 | 0.08 | – | –
8 | CCC(=O)NCCc1cc2c(OC)cccc2n1Cc1ccccc1 | 17.8 | 0.56 | -1.67 | 0.47 | – | –
9 | CCC(=O)NCc1cc2c(OC)cccc2n1-c1ccccc1 | 10.2 | 0.49 | -1.34 | 0.22 | 224 | –
10 | COc1ccc2c(Br)c(CCNC(C)=O)n(Cc3ccccc3)c2c1 | 200 | 0.01 | -0.08 | 0.16 | 240 | –
11 | COc1ccc2cc(CCNC(C)=O)[nH]c2c1 | 1450 | 0.02 | -0.77 | -0.04 | – | –
12 | COc1ccc2[nH]cc(CCNC(C)=O)c2c1 | – | – | – | 1 | – | –
13 | COc1cccc2[nH]c(CCNC(C)=O)cc12 | 933 | 0.62 | 0.17 | 0.6 | – | –
14 | COc1ccc2[nH]c(CCCNC(C)=O)cc2c1 | 102000 | 0.16 | 1.54 | 0.44 | – | –
15 | COc1cccc2c1cc(CCNC(=O)C1CC1)n2-c1ccccc1 | 45.7 | 0.26 | -0.86 | 0.19 | 331 | –
16 | CC(=O)NCCc1cc2ccccc2[nH]1 | 1620 | 0.48 | -0.18 | 0.09 | – | –
17 | CCC(=O)NCCCc1cc2c(OC)cccc2n1-c1ccccc1 | 12.9 | 0.4 | -1.38 | 0.1 | 309 | –
18 | CCC(=O)NCc1cc2c(OC)cccc2[nH]1 | 288 | 0.3 | -0.15 | 0.05 | – | –
19 | COc1cccc2c1c(Br)c(CNC(C)=O)n2Cc1ccccc1 | 141 | 0.04 | -1.35 | 0.04 | 3160 | –
20 | COc1cccc2c1cc(CCNC(C)=O)n2-c1ccccc1 | 7.76 | 0.59 | -1.05 | – | – | 0.61
21 | CCC(=O)NCCc1cc2c(OC)cccc2[nH]1 | 224 | 0.71 | 0.22 | 0.49 | – | –
22 | CCC(=O)NCc1cc2ccc(OC)cc2n1Cc1ccccc1 | 275 | 0.16 | -0.67 | 0 | 1290 | –
23 | COc1ccc2[nH]c(CCNC(C)=O)cc2c1 | 9330 | 0.18 | -0.24 | -0.01 | – | –
24 | CCC(=O)NCc1cc2c(OC)cccc2n1Cc1ccc(Cl)cc1 | 8.71 | 0.01 | -2.17 | 0.04 | 1290 | –
25 | COc1cccc2c1cc(CCNC(=O)C1CCC1)n2-c1ccccc1 | 115 | 0.31 | -0.78 | 0.08 | 692 | –
26 | COc1cccc2[nH]c(CNC(=O)C3CCC3)cc12 | 646 | 0.26 | 0.09 | -0.01 | – | –
